From patent US4946854A, “3-aminobenzoylphenylureas useful for controlling parasites and insects that attack domestic animals and livestock” (priority 1987, dated 1990)
In brackets after ≈: the same amount, converted by molar mass. Read-outs that look alike come from different tables or passages of the source.

Assays:
[1] = Bio-availability: blood plasma level after injection of calves; assay type: in vivo
Method: As a measure of bio-availability, the blood plasma level of the compounds is determined on several days after the injection of calves with, in each case, 1 mg of compound/kg body weight.

[2] = Physico-chemical characteristics: solubilities; assay type: physicochemical
Ctenocephalides felis = assay: Action against fleas (infested dogs, oral); assay type: in vivo, Ctenocephalides felis (on dogs); details: 50 mg kg-1 day-1, dogs
Method: Dogs having the proven ability to support a flea population permanently are infested with 100 cat fleas Ctenocephalides felis Bouche. The infested dogs are then divided into 3 groups of 2 animals. […] The test compound is administered in the form of an aqueous suspension (by means of a syringe). The third group of animals is not treated and serves as a control group.
After 3, 8 and 10 days, the eggs of the fleas are collected from the paper which is under the dog cages. The eggs are counted, placed on a medium suitable for the culture of larvae and incubated. A count is made of the resulting pupae and fully grown fleas.

[3] = test system: Lucilia sericata and L. cuprina; assay: Action against blowflies; assay type: in vivo; details: 6.4 ppm, after at the most 96 h
Method: Freshly deposited eggs of the blowfly species Lucilia sericata and L. cuprina are placed in small portions (30 to 50 eggs) into each of a number of test tubes in which 4 ml of nutrient medium have been mixed with 1 ml of test solution at the intermediate dilution of the active ingredient necessary to obtain the final concentration. After inoculating the culture medium, the test tubes are sealed with cotton wool plugs and are then incubated in an incubator at 30° C. for 4 days. In the untreated medium, larvae about 1 cm in length (stage 3) have developed by the end of this 4-day period. When a compound is active the larvae are by the end of this period either dead or distinctly retarded. Four tests are carried out simultaneously with concentrations of 100, 40, 16 and 6.4 ppm, respectively. The activity is measured according to the lowest concentration that is still fully active (LC 100).

[4] = hexane, organic solvent or mixture, read-out: solubility in hexane
[5] = water, read-out: solubility in water

Work on `O=C(NC(=O)c1c(F)cccc1F)Nc1ccc(Cl)c(Oc2ncc(C(F)(F)F)cc2Cl)c1` [(A)] yielded a concentration at 24 h ([1]; bovine, plasma, 1 mg/kg, day 1, calf 1, 1 mg/kg injection) of 7 ng/mL, a concentration at 24 h ([1]; bovine, plasma, 1 mg/kg, day 1, calf 2, 1 mg/kg injection) of 5 ng/mL and a concentration at 168 h ([1]; bovine, plasma, 1 mg/kg, day 7, calf 1, 1 mg/kg injection) of 3 ng/mL. The concentration at 168 h ([1]; bovine, plasma, 1 mg/kg, day 7, calf 2, 1 mg/kg injection) was 4 ng/mL, the concentration at 336 h ([1]; bovine, plasma, 1 mg/kg, day 14, calf 1, 1 mg/kg injection) was 4 ng/mL and the concentration at 336 h ([1]; bovine, plasma, 1 mg/kg, day 14, calf 2, 1 mg/kg injection) was 9 ng/mL. The concentration at 504 h ([1]; bovine, plasma, 1 mg/kg, day 21, calf 1, 1 mg/kg injection) was 7 ng/mL, the concentration at 504 h ([1]; bovine, plasma, 1 mg/kg, day 21, calf 2, 1 mg/kg injection) was 10 ng/mL and the concentration at 672 h ([1]; bovine, plasma, 1 mg/kg, day 28, calf 1, 1 mg/kg injection) was 6 ng/mL. It also gave a concentration at 672 h ([1]; bovine, plasma, 1 mg/kg, day 28, calf 2, 1 mg/kg injection) of 5 ng/mL, a concentration at 840 h ([1]; bovine, plasma, 1 mg/kg, day 35, calf 1, 1 mg/kg injection) of 6 ng/mL and a concentration at 840 h ([1]; bovine, plasma, 1 mg/kg, day 35, calf 2, 1 mg/kg injection) of 10 ng/mL. It also gave a concentration at 1008 h ([1]; bovine, plasma, 1 mg/kg, day 42, calf 1, 1 mg/kg injection) of 9 ng/mL, a concentration at 1008 h ([1]; bovine, plasma, 1 mg/kg, day 42, calf 2, 1 mg/kg injection) of 6 ng/mL and a concentration at 1176 h ([1]; bovine, plasma, 1 mg/kg, day 49, calf 1, 1 mg/kg injection) of 4 ng/mL. For the same compound, the concentration at 1176 h ([1]; bovine, plasma, 1 mg/kg, day 49, calf 2, 1 mg/kg injection) was 4 ng/mL, the concentration at 1344 h ([1]; bovine, plasma, 1 mg/kg, day 56, calf 1, 1 mg/kg injection) was 5 ng/mL and the concentration at 1344 h ([1]; bovine, plasma, 1 mg/kg, day 56, calf 2, 1 mg/kg injection) was 5 ng/mL. The concentration at 1512 h ([1]; bovine, plasma, 1 mg/kg, day 63, calf 1, 1 mg/kg injection) was 4 ng/mL, the concentration at 1512 h ([1]; bovine, plasma, 1 mg/kg, day 63, calf 2, 1 mg/kg injection) was 6 ng/mL and the concentration at 1680 h ([1]; bovine, plasma, 1 mg/kg, day 70, calf 1, 1 mg/kg injection) was 7 ng/mL. The concentration at 1680 h ([1]; bovine, plasma, 1 mg/kg, day 70, calf 2, 1 mg/kg injection) was 5 ng/mL, the concentration at 1848 h ([1]; bovine, plasma, 1 mg/kg, day 77, calf 1, 1 mg/kg injection) was 5 ng/mL and the concentration at 1848 h ([1]; bovine, plasma, 1 mg/kg, day 77, calf 2, 1 mg/kg injection) was 2 ng/mL. It also gave a concentration at 2016 h ([1]; bovine, plasma, 1 mg/kg, day 84, calf 1, 1 mg/kg injection) of 7 ng/mL, a concentration at 2016 h ([1]; bovine, plasma, 1 mg/kg, day 84, calf 2, 1 mg/kg injection) of 7 ng/mL and a Cmax ([1]; bovine, plasma, calves, injection, 1 mg/kg, read-out: maximum concentration in the blood (plasma)) of 7 to 10 ng/mL. The “persistence of blood plasma level” value ([1]; level of 7 to 10 ppb, calves, 1 mg/kg) was “maintained over a relatively long period”, the solubility [2, 4] was 3 µg/mL (≈ 5.93 µM) and the solubility in isopropanol [2] was 0.09%. The solubility in n-octanol [2] was 0.065% and the solubility [2, 5] was 0.02 µg/mL (≈ 0.0395 µM).

For `Nc1ccc(F)c(C(=O)NC(=O)Nc2ccc(Cl)c(Oc3ncc(C(F)(F)F)cc3Cl)c2)c1F` [Compound 1.1, N-[3-(3-chloro-5-trifluoromethylpyridyl-2-oxy)-4-chlorophenyl]-N'-[2,6-difluoro-3-aminobenzoyl]-urea], the concentration at 24 h ([1]; bovine, plasma, 1 mg/kg, day 1, calf 3, 1 mg/kg injection) was 126 ng/mL, the concentration at 24 h ([1]; bovine, plasma, 1 mg/kg, day 1, calf 4, 1 mg/kg injection) was 185 ng/mL and the concentration at 168 h ([1]; bovine, plasma, 1 mg/kg, day 7, calf 3, 1 mg/kg injection) was 48 ng/mL. The concentration at 168 h ([1]; bovine, plasma, 1 mg/kg, day 7, calf 4, 1 mg/kg injection) was 66 ng/mL, the concentration at 336 h ([1]; bovine, plasma, 1 mg/kg, day 14, calf 3, 1 mg/kg injection) was 16 ng/mL and the concentration at 336 h ([1]; bovine, plasma, 1 mg/kg, day 14, calf 4, 1 mg/kg injection) was 27 ng/mL. It also gave a concentration at 504 h ([1]; bovine, plasma, 1 mg/kg, day 21, calf 3, 1 mg/kg injection) of 10 ng/mL, a concentration at 504 h ([1]; bovine, plasma, 1 mg/kg, day 21, calf 4, 1 mg/kg injection) of 12 ng/mL and a concentration at 672 h ([1]; bovine, plasma, 1 mg/kg, day 28, calf 3, 1 mg/kg injection) of 5 ng/mL. For the same compound, the concentration at 672 h ([1]; bovine, plasma, 1 mg/kg, day 28, calf 4, 1 mg/kg injection) was 6 ng/mL, the concentration at 840 h ([1]; bovine, plasma, 1 mg/kg, day 35, calf 3, 1 mg/kg injection) was 2 ng/mL and the concentration at 840 h ([1]; bovine, plasma, 1 mg/kg, day 35, calf 4, 1 mg/kg injection) was 4 ng/mL. The “bio-availability compared with (A)” value ([1]; calves, injection, 1 mg/kg) was “distinctly better bio-availability than does compound (A)”, the “excretion compared with (A)” value ([1]; calves, injection, 1 mg/kg) was “excreted considerably more rapidly than (A)” and the “reaching of high concentration in the blood plasma” value ([1]; calves, injection, 1 mg/kg) was “a high concentration in the blood plasma is reached very rapidly”. For the same compound, the Blood plasma level ([1]; day 42, calf 3, 1 mg/kg injection) was 0 ppb, the Blood plasma level ([1]; day 42, calf 4, 1 mg/kg injection) was 0 ppb and the Blood plasma level ([1]; day 49, calf 3, 1 mg/kg injection) was 0 ppb. It also gave a Blood plasma level ([1]; day 49, calf 4, 1 mg/kg injection) of 0 ppb, a Blood plasma level ([1]; day 56, calf 3, 1 mg/kg injection) of 0 ppb and a Blood plasma level ([1]; day 56, calf 4, 1 mg/kg injection) of 0 ppb. For the same compound, the Blood plasma level ([1]; day 63, calf 4, 1 mg/kg injection) was 0 ppb, the Blood plasma level ([1]; day 70, calf 4, 1 mg/kg injection) was 0 ppb and the Blood plasma level ([1]; day 77, calf 4, 1 mg/kg injection) was 0 ppb. The Blood plasma level ([1]; day 84, calf 4, 1 mg/kg injection) was 0 ppb, the “blood plasma values compared with (A)” value ([1]; very rapidly after administration, calves, 1 mg/kg) was “higher blood plasma values” and the solubility [2, 4] was roughly 60 µg/mL (≈ 115 µM). It also gave a solubility in isopropanol [2] of 0.30%, a solubility in n-octanol [2] of 0.56% and a solubility [2, 5] of 0.11 µg/mL (≈ 0.211 µM). For the same compound, the activity (Ctenocephalides felis) was “more than 50%”.

In the case of `Nc1ccc(F)c(C(=O)NC(=O)Nc2ccc(Cl)c(Oc3ncc(C(F)(F)C(F)(Cl)Cl)cc3Cl)c2)c1F` [Compound 1.9], the “mortality of the larvae” value [3] is reported as 100%.

With `Nc1ccc(F)c(C(=O)NC(=O)Nc2ccc(F)c(Oc3ncc(C(F)(F)F)cc3Cl)c2)c1F` [Compound 1.6, N-[3-(3-chloro-5-trifluoromethylpyridyl-2-oxy)-4-fluorophenyl]-N'-[2,6-difluoro-3-aminobenzoyl]-urea] the activity (Ctenocephalides felis) was “more than 50%”.

In the case of `Nc1ccc(F)c(C(=O)NC(=O)Nc2cccc(Sc3ncc(C(F)(F)F)cc3Cl)c2)c1F` [Compound 1.12], the activity (Ctenocephalides felis) is reported as “more than 50%”.
